According to patent US20230165183A1, “METHODS AND COMPOSITIONS FOR IMPROVED SEED GROWTH” (Cyprus University of Technology, priority 2021, published 2023):
Like-named read-outs stand apart in the source and are kept apart here.

Assays:
[1] = test system: Wheat; details: cited from earlier work
[2] = test system: Maize; details: cited from earlier work
[3] = test system: Safflower; details: Drought; cited from earlier work
[4] = test system: Rice; details: cited from earlier work
[5] = test system: tomato seeds; assay: Germination percentage of primed/coated tomato seeds five days after sowing; type: in vivo; details: tomato seeds primed with melatonin (Mel 1=50 μM, Mel 2=100 μM), 5 DAS, vs unprimed seeds; p<0.05
Protocol: FIG. 4 depicts germination percentage five days after sowing (5 DAS) in tomato seeds coated (pre-treated) with melatonin concentrations (Mel 1=50 μM, Mel 2=100 μM) in comparison with unprimed seeds (non-treated) and hydrogel coated seeds (Hydro).
Tomato seeds were primed with melatonin at the following concentrations: 5 μM, 10 μM, 15 μM, 25 μM, 50 μM, 100 μM, 200 μM, and 300 μM. Priming was performed by soaking the seeds in the desired melatonin concentration, then vacuum-drying the seeds.
FIG. 4 depicts germination percentage five days after sowing (5 DAS) in tomato seeds coated pre-treated with melatonin concentrations (Mel 1=50 μM, Mel 2=100 μM) in comparison with unprimed seeds (Non-treated) and hydrogel coated seeds (Hydro).

[6] = test system: Sorghum; details: Drought; cited from earlier work
[7] = test system: Chickpea; details: Drought; cited from earlier work
[8] = test system: Pot Marigold; details: Salt; cited from earlier work
[9] = test system: Corn; details: Salt; cited from earlier work
[10] = test system: Pigeon Pea; details: Calcium; cited from earlier work
[11] = test system: Maize; details: Salt; cited from earlier work
[12] = test system: Wheat; details: Salt; cited from earlier work
[13] = test system: Milk Thistle; details: Salt; cited from earlier work

## O=C(O)c1ccccc1O [SA, salicyclic acid]
[1]; Drought
  Plant Response to SA: Balanced nutrient uptake
[1]; Osmotic
  Plant Response to SA: Increased tolerance
[1]; Salinity
  Plant Response to SA: Decreased electrolyte leakage
[2]; Chilling
  Plant Response to SA: Enhanced antioxidant activity
[2]; Lead
  Plant Response to SA: Increased nitric oxide content
[3]
  Plant Response to SA: Enhanced antioxidant activity
[4]; Chilling
  Plant Response to SA: Enhanced antioxidant activity
[4]; Chromium
  Plant Response to SA: Increased chlorophyll content

## COc1ccc2[nH]cc(CCNC(C)=O)c2c1 [melatonin]
[5]
  germination percentage: significantly increased germination percentage

## gibberellin [GA]
[6]
  Plant Response to GA: Increased CAT and APX activities
[7]
  Plant Response to GA: Increased relative water content
[8]
  Plant Response to GA: Increased tolerance
[9]
  Plant Response to GA: Increased tissue water content
[10]
  Plant Response to GA: Increased germination
[11]
  Plant Response to GA: Alleviated salt stress
[12]
  Plant Response to GA: Increased tolerance
[13]
  Plant Response to GA: Alleviated salt stress
